One experiment concerns E.coli ATCC 25922. Format: cell-based, Escherichia coli. How it is done: (§1) Bacteria. Staphylococcus aureus ATCC 25923, Pseudomonas aeruginosa ATCC 27853, Escherichia coli ATCC 25922 and Staphylococcus aureus ATCC 43300 were cultivated on tryptone - soy agar (TSA; Oxoid). Klebsiella pneumoniaeATCC 13882, Bordetella bronchiseptica ATCC 4617, Acinetobacter baumannii ATCC 19606 were cultivated onto nutrient agar (Difco). Escherichia coli ATCC BAA-198 was cultivated on TSA with ceftazidime (10 µg/mL or 15.7 μM; Sigma). All strains were incubated during 24 hrs at 37 °C.
(§2) Medium. Mueller – Hinton Broth (Oxoid) was supplemented with cations: 12.5 mg Mg ^++/L and25 mg Ca^++/L. The pH of the medium after sterilization is between 7.2 and 7.4 [cation–adjusted Mueller – Hinton Broth” (CAMHB)].
(§3) Reference method. Broth microdilution susceptibility test was performed as described in […] reference method M7-A7 (2). A series of the twofold dendrimers dilutions in DMSO and twofold polymyxin B and penicillin G dilutions in CAMHB were diluted […] with CAMHB. Aliquots (95 µL) were dispensed into microdilution sterile plates (Mar-Four). Then, bacteria inoculum (5 µL) containing 5 × 10^4 CFU/mL were added. The final concentration of dendrimers ranged from 128 to 2 µg/mL [or 105 to 1.6 μM for an average molecular mass for 7 series (1213) and 61 to 0.9 μM for an average molecular mass for 10 series(2,103)], polymyxin B and penicillin G from 8 – 0.15 µg /mL (or 5.8 to 0.1 μM and 21.5 to 0.4 μM, respectively for polymyxin B and penicillin G), all in twofold dilution steps. The plates were incubated at 35 °C and read after 18 or 24 hours depending on bacterial strain. MICs (Minimal Inhibitory Concentration) was defined as the lowest drug concentration that reduced growth by 100%.

In another experiment the test system is S. aureus ATCC 25923. As to the kind of experiment: microbe, parasite or virus in culture. The conditions noted are these: read-out: Minimal inhibitory concentration (MIC). Format: cell-based, Staphylococcus aureus. Here is the method: as §1, §2, §3
The next experiment deals with S. aureus ATCC 43300. It counts as cell-based, Staphylococcus aureus. The conditions noted are these: ATCC 43300, 24 h. How it is done:
as §1, §2, §3

Another experiment has as its system E. coli ATCC BAA-198. It counts as cell-based, Escherichia coli. The conditions noted are these: ATCC BAA-198, 24 h. How it is done: as §1, §2, §3
Experiment [1] concerns B. bronchiseptica ATCC 4617. It counts as cell-based, Bordetella bronchiseptica. The conditions noted are these: ATCC 4617, 24 h. How it is done:
as §1, §2, §3

The subject of another experiment is C. albicans ATCC 90028. It counts as cell-based, Candida albicans. The conditions noted are these: ATCC 90028, 48 h, pH 7. Here is the method:
(§4) Yeasts: Candida albicans ATCC 90028, Candida parapsilosis ATCC 22019 and Candida krusei ATCC 6258 were cultivated onto Sabouraud dextrose agar (Difco) during 24 hrs at 35 °C.
(§5) Medium: RPMI – 1640 (Sigma) supplemented with 0.2% (wt/vol) glucose, 0.3 g/L L-glutamine, 0.0053 g/L phenol red, buffered with morpholinopropanesulfonic acid (MOPS; Sigma) at a final concentration of 0.165 M and adjusted to pH 7.0 was prepared.
(§6) Reference Method: The broth microdilution susceptibility test was performed as described in Clinical and Laboratory Standards Institute (CLSI) reference method M27 – A2 (1). A series of the twofold dendrimers and amphotericin B dilutions in DMSO were diluted 1:49 with RPMI.

A further experiment deals with C. krusei ATCC 6258. Nature of the experiment: microbe, parasite or virus in culture. It counts as cell-based, Candida krusei. The conditions noted are these: read-out: Minimal inhibitory concentration (MIC). How it is done: as §4, §5, §6
The next experiment deals with P. aeruginosa ATCC 27853. Format: cell-based, Pseudomonas aeruginosa. Particulars: ATCC 27853, 24 h. Here is the method:
as §1, §2, §3

For another experiment, the system named is K. pneumoniae ATCC 13882. It counts as cell-based, Klebsiella pneumoniae. The conditions noted are these: ATCC 13882, 24 h. Here is the method: as §1, §2, §3
The subject of another experiment is A. baumani ATCC 19606. It counts as cell-based, Acinetobacter baumannii. The conditions noted are these: ATCC 19606, 24 h. How it is done:
as §1, §2, §3

Experiment [2] concerns C. parapsilosis ATCC 22019. Format: cell-based, Candida parapsilosis. Particulars: ATCC 22019, 48 h, pH 7. How it is done:
as §4, §5, §6

Where [3] appears, read: E. coli ATCC 25922, broth microdilution CLSI M7-A7, CAMHB, 35 °C, read after 18 or 24 h, 100% growth reduction.
Setting [4] is: S. aureus ATCC 25923, broth microdilution CLSI M7-A7, CAMHB pH 7.2-7.4, 35 °C, read after 18 or 24 h, MIC = lowest concentration that reduced growth by 100%.

Values after ≈ are worked out from the molar mass of the structure shown. Where a name gives a salt, the structure may show the parent alone. Read-outs that look alike come from different tables or passages of the source.

The values that follow come from article PMC6255327, “Design of Antimicrobially Active Small Amphiphilic Peptide Dendrimers” (Molecules, 2009).

With `NCCCN(CCCN)CCC[C@@H](CO)N(CCCN)CCCN` [Compound 5c, N,N’,N,N’-tetrakis(3-aminopropyl)-L-α,δ-diaminopentanol], in the experiment with E.coli ATCC 25922 (setting [3]), the “Minimal inhibitory concentration (MIC)” value is over 226 µM. Besides, in the experiment with S. aureus ATCC 25923 (setting [4]), the MIC amounted to 113 µM (≈ 39.2 µg/mL).
As to `NCCCN(CCCN)CCCC[C@@H](CO)N(CCCN)CCCN` [Compound 5d, N,N’,N,N’-tetrakis(3-aminopropyl)-L-α,ε-diaminohexanol], the “Minimal inhibitory concentration (MIC)” value with E.coli ATCC 25922 (setting [3]) was over 221 µM. In addition, in the experiment with S. aureus ATCC 25923 (setting [4]), the MIC worked out at 221 µM (≈ 79.7 µg/mL).
Take `NCCCC[C@H](NC(=O)OCc1ccccc1Cl)C(=O)NCCCN[C@@H](CN(CCCNC(=O)[C@H](CCCCN)NC(=O)OCc1ccccc1Cl)CCCNC(=O)[C@H](CCCCN)NC(=O)OCc1ccccc1Cl)C(=O)NCc1ccccc1` [Compound 7e, N,N,N’-tris[(N^α-2-chlorobenzyloxycarbonyl)-L-lysil-3-aminopropyl]-L-diaminoalanine benzylamide pentahydrochloride]: the “Minimal inhibitory concentration (MIC)” value in the experiment on S. aureus ATCC 43300 was 11.8 µM; with E.coli ATCC 25922 (ATCC 25922, 24 h) it was 11.8 µM; with E. coli ATCC BAA-198, over 88 µM; in [1] it was 11 µM; in the experiment on C. albicans ATCC 90028 it was over 88 µM; in the experiment with P. aeruginosa ATCC 27853, 24.3 µM. The “Minimal inhibitory concentration (MIC)” value with K. pneumoniae ATCC 13882 is over 89 µM; in the experiment on A. baumani ATCC 19606 it was over 89 µM; in experiment [2] it was 88 µM. The MIC in the experiment with S. aureus ATCC 25923 (ATCC 25923, 24 h, pH 7.2) is on record as 2.8 µM; in the experiment with C. krusei ATCC 6258 (ATCC 6258, 48 h, pH 7) it was 44 µM.
Regarding `NCCCC[C@H](NC(=O)OCc1ccccc1Cl)C(=O)NCCCN[C@@H](CCN(CCCNC(=O)[C@H](CCCCN)NC(=O)OCc1ccccc1Cl)CCCNC(=O)[C@H](CCCCN)NC(=O)OCc1ccccc1Cl)C(=O)NCc1ccccc1` [Compound 7f, N,N,N’-tris[(N^α-2-chlorobenzyloxycarbonyl)-L-lysil-3-aminopropyl]-L-diaminobutyro benzylamide pentahydrochloride], the “Minimal inhibitory concentration (MIC)” value is 10.3 µM in the experiment on S. aureus ATCC 43300; 48 µM in the experiment on E.coli ATCC 25922 (ATCC 25922, 24 h); over 89 µM with E. coli ATCC BAA-198; 11 µM in experiment [1]; over 89 µM in the experiment with C. albicans ATCC 90028; 48 µM with P. aeruginosa ATCC 27853. The “Minimal inhibitory concentration (MIC)” value was over 88 µM with K. pneumoniae ATCC 13882, over 88 µM in the experiment on A. baumani ATCC 19606 and 89 µM in experiment [2]. Further, the MIC in the experiment with S. aureus ATCC 25923 (ATCC 25923, 24 h, pH 7.2) is on record as 11.7 µM; in the experiment with C. krusei ATCC 6258 (ATCC 6258, 48 h, pH 7), 44 µM.
As to `NCCCC[C@H](NC(=O)OCc1ccccc1Cl)C(=O)NCCCN[C@@H](CCCCN(CCCNC(=O)[C@H](CCCCN)NC(=O)OCc1ccccc1Cl)CCCNC(=O)[C@H](CCCCN)NC(=O)OCc1ccccc1Cl)C(=O)NCc1ccccc1` [Compound 7h, N,N,N’-tris[(N^α-2-chlorobenzyloxycarbonyl)-L-lysil-3-aminopropyl]-L-lysine benzylamide penta-hydrochloride], the “Minimal inhibitory concentration (MIC)” value in the experiment with S. aureus ATCC 43300 was 21.6 µM; in the experiment with E.coli ATCC 25922 (ATCC 25922, 24 h), 86 µM; in the experiment with E. coli ATCC BAA-198 it was 43 µM; in [1] it was 5.4 µM; in the experiment on C. albicans ATCC 90028 it was over 86 µM; in the experiment on P. aeruginosa ATCC 27853, 86 µM. Also, the entries for the “Minimal inhibitory concentration (MIC)” value (in the experiment with K. pneumoniae ATCC 13882; in the experiment on A. baumani ATCC 19606; in experiment [2]) were over 86 µM, over 86 µM and 86 µM, respectively. Also, the MIC in the experiment with S. aureus ATCC 25923 (ATCC 25923, 24 h, pH 7.2) is listed as 21.6 µM; with C. krusei ATCC 6258 (ATCC 6258, 48 h, pH 7) it was 43 µM.
For the molecule `NCCCC[C@H](NC(=O)OCc1ccccc1Cl)C(=O)N[C@@H](Cc1ccccc1)C(=O)NCCCN(CCCNC(=O)[C@H](Cc1ccccc1)NC(=O)[C@H](CCCCN)NC(=O)OCc1ccccc1Cl)C[C@@H](CO)N(CCCNC(=O)[C@H](Cc1ccccc1)NC(=O)[C@H](CCCCN)NC(=O)OCc1ccccc1Cl)CCCNC(=O)[C@H](Cc1ccccc1)NC(=O)[C@H](CCCCN)NC(=O)OCc1ccccc1Cl` [Compound 10a, N,N',N,N’-tetrakis[(N^α-2-chlorobenzyloxycarbonyl)-L-lysil-L-phenylalanyl-3-aminopropyl]-L-α,δ-diaminopropanol hexahydrochloride], the “Minimal inhibitory concentration (MIC)” value in the experiment on S. aureus ATCC 43300 turned out to be 3.4 µM; with E.coli ATCC 25922 (ATCC 25922, 24 h), 7.3 µM; with E. coli ATCC BAA-198, 6.9 µM; in experiment [1] it was 3.4 µM; in the experiment with C. albicans ATCC 90028 it was 6.8 µM; with P. aeruginosa ATCC 27853, 30.2 µM. For the same molecule, the “Minimal inhibitory concentration (MIC)” value was over 55 µM in the experiment on K. pneumoniae ATCC 13882, 13.8 µM in the experiment with A. baumani ATCC 19606 and 6.8 µM in experiment [2]. The MIC in the experiment with S. aureus ATCC 25923 (ATCC 25923, 24 h, pH 7.2) was 1.7 µM; with C. krusei ATCC 6258 (ATCC 6258, 48 h, pH 7), 6.8 µM.
As for `NCCCC[C@H](NC(=O)OCc1ccccc1Cl)C(=O)N[C@@H](Cc1ccccc1)C(=O)NCCCN(CCCNC(=O)[C@H](Cc1ccccc1)NC(=O)[C@H](CCCCN)NC(=O)OCc1ccccc1Cl)CC[C@@H](CO)N(CCCNC(=O)[C@H](Cc1ccccc1)NC(=O)[C@H](CCCCN)NC(=O)OCc1ccccc1Cl)CCCNC(=O)[C@H](Cc1ccccc1)NC(=O)[C@H](CCCCN)NC(=O)OCc1ccccc1Cl` [Compound 10b, N,N',N,N’-tetrakis[(N^α-2-chlorobenzyloxycarbonyl)-L-lysil-L-phenylalanyl-3-aminopropyl]-L-α,δ-diaminobutanol hexahydrochloride], the “Minimal inhibitory concentration (MIC)” value in the experiment with S. aureus ATCC 43300 was determined as 7.3 µM; with E.coli ATCC 25922 (ATCC 25922, 24 h), 7.3 µM; with E. coli ATCC BAA-198 it was 6.9 µM; in experiment [1] it was 3.4 µM; with C. albicans ATCC 90028, 6.9 µM; in the experiment on P. aeruginosa ATCC 27853, 47 µM. In addition, the “Minimal inhibitory concentration (MIC)” value was over 55 µM in the experiment with K. pneumoniae ATCC 13882, 13.8 µM in the experiment with A. baumani ATCC 19606 and 6.9 µM in experiment [2]. The MIC in the experiment with S. aureus ATCC 25923 (ATCC 25923, 24 h, pH 7.2) is 1.3 µM; in the experiment with C. krusei ATCC 6258 (ATCC 6258, 48 h, pH 7), 6.9 µM.
`CC1(C)S[C@@H]2[C@H](NC(=O)Cc3ccccc3)C(=O)N2[C@H]1C(=O)O` [Penicillin G, reference compound]: the MIC in the experiment on S. aureus ATCC 25923 (Staphylococcus aureus, ATCC25923, S. aureus ATCC 25923, broth microdilution CLSI M7-A7, CAMHB pH 7.2-7.4, 35 °C, read after 18 or 24 h, MIC = lowest concentration that reduced growth by 100%) stood at 6.6 µM (≈ 2.21 µg/mL).
For the molecule `C[C@@H]1[C@H](O)[C@@H](C)/C=C/C=C/C=C/C=C/C=C/C=C/C=C/[C@H](O[C@@H]2O[C@H](C)[C@@H](O)[C@H](N)[C@@H]2O)C[C@@H]2O[C@](O)(C[C@@H](O)C[C@@H](O)[C@H](O)CC[C@@H](O)C[C@@H](O)CC(=O)O[C@H]1C)C[C@H](O)[C@H]2C(=O)O` [amphotericin B, reference compound], the MIC with C. krusei ATCC 6258 (Pichia kudriavzevii, ATCC6258, C. krusei ATCC 6258, broth microdilution CLSI M27-A2, RPMI-1640 with MOPS pH 7.0, 35 °C, read after 24 and 48 h, 100% growth reduction) was 1.1 µM (≈ 1.02 µg/mL).
